Like-named read-outs stand apart in the source and are kept apart here. Some results are limits rather than exact numbers.

The assay has as its target T1, human EP2 (Homo sapiens, UniProt P43116).
T1 construct: expressed in transfected cells; host or cells: CHO cells (EP2-CHO)
The experiment in a line: Measurement of EP2 agonist activity (measurement of cAMP concentration). Type of assay: cell-based. As to the method:
Using Chem1 cells or CHO cells in which various prostanoid receptors were forcibly expressed, respectively, agonist activities of test compounds on various prostanoid receptors was determined employing, as a measure, an intracellular cyclic AMP (hereinbelow, abbreviated as “cAMP”) production amount or an intracellular calcium concentration.
The test compound and a control substance (PGE2 and PGF2α) were dissolved in dimethyl sulfoxide (DMSO) to prepare a 10 mmol/L solution. The 10 mmol/L solution thus prepared was thawed upon use, then serially diluted with DMSO, and then diluted with a buffer solution for measurement use or a buffer solution for measurement use 2, and then the resulting solution was subjected to an experiment.
Cells forcibly expressing various prostanoid receptors were standing-cultured at 37° C. in the presence of 5% CO2 using a DMEM medium (Sigma) (for culturing FP-Chem1) containing inactivated (56° C., 30 minutes) 9.8 vol % nondialysed-FBS (Life Technologies), 1 vol % Non Essential Amino Acids (Life Technologies), 10 mmol/L HEPES Buffer Solution (Life Technologies), 0.5 vol % GENETICIN (Life Technologies) and 1% penicillin-streptomycin (Life Technologies) or an α-MEM medium (Sigma) (for culturing EP2-CHO) containing inactivated (56° C., 30 minutes) 9.8 vol % dialysed-FBS (Life Technologies) and penicillin-streptomycin-glutamine (Life Technologies). Subculturing was carried out by the following manner.
The medium was removed, and washed with a phosphate-buffered physiological saline not containing Ca^2+ and Mg^2+ one time. A proper amount of trypsin-EDTA (Life Technologies) was added, and this was incubated at room temperature, cells were peeled, and a medium having a volume which is 10-fold a volume of trypsin-EDTA was added to stop an enzymatic reaction. After cells were recovered into a centrifuging tube, and centrifuged at room temperature for 3 minutes at 120 g, the supernatant was removed. Cells were suspended in a proper amount of a medium, and seeded in a culturing flask.
On the measurement day, a medium was removed, and EP2-CHO was washed with a phosphate-buffered physiological saline containing 2 mmol/L EDTA and not containing Ca^2+ and Mg^2+ one time. A proper amount of the phosphate-buffered physiological saline containing 2 mmol/L EDTA and not containing Ca^2+ and Mg^2+ was added, this was incubated at 37° C. in the presence of 5% CO2, cells were peeled, cells were recovered into a centrifuging tube, and centrifuged at room temperature for 3 minutes at 550 g, and the supernatant was removed. Cells were suspended in a proper amount of a buffer solution for measurement 1 (MEM medium (Invitrogen) containing 1.0 w/v % bovine serum albumin (Sigma) and 2 μmol/L diclofenac (Sigma)), and centrifuged at room temperature for 3 minutes at 200 g, and the supernatant was removed. Cells were suspended in a buffer solution for measurement 2 (MEM medium (Invitrogen) containing 1.0 w/v % bovine serum albumin (Sigma), 2 μmol/L diclofenac (Sigma) and 1 mmol/L 3-isobutyl-1-methylxanthine), and each 25 μL of the suspension was dispensed into a 96-well ½ area plate so that the cell number per well became […]. A buffer solution for measurement 2 (25 μL) containing an agonist at a variety of concentrations was added to carry out a reaction at room temperature for 30 minutes. Measurement of a cAMP concentration was carried out using the cAMP HTRF HiRange kit (CIS bio International). According to the two step protocol of the kit manual, each 25 μL of cAMP-D2 and Cryptase diluted with a lysis buffer were added, and this was incubated at room temperature for 1 hour. After incubation for 1 hour, time resolution fluorescence at 620 nm and 660 nm when excited at 340 nm was measured using SpectraMax M5e (Molecular Device), and a ratio (TRF ratio) was obtained, thereby, a cAMP concentration was calculated from a calibration line. […]

The mark [1] stands for this setting: EP2-CHO cells, cAMP production (HTRF), reaction 30 minutes at room temperature, read-out: EP2 agonist activity EC50.
[2] abbreviates: prior-art compounds having an analogous structure, same EP2 test, read-out: EP2 agonist activities, EC50 values.

T1 sequence (P43116 whole entry): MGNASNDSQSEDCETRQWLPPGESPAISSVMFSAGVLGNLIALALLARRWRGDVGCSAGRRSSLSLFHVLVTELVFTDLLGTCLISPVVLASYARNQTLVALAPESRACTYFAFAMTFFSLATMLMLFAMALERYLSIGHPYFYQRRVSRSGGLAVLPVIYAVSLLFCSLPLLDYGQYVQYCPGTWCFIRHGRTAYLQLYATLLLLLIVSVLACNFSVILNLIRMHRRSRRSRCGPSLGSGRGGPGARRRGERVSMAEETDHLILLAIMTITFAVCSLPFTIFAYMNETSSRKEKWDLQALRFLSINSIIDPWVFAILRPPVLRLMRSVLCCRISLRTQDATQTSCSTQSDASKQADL

Broadly, the EC50 is the concentration that produces a half-maximal response. With `O=C(O)c1csc([C@H]2CC[C@@H]3[C@@H](COc4ccc5c(c4F)CCC5)[C@@H](O)C[C@@H]3O2)n1` [9(5), 2-[(2R,4aR,5S,6S,7aS)-5-{[(4-fluoro-2,3-dihydro-1H-inden-5-yl)oxy]methyl}-6-hydroxyoctahydrocyclopenta[b]pyran-2-yl]-1,3-thiazole-4-carboxylic acid], the EC50 under setting [1] amounted to 0.91 nM.

`O=C(O)c1csc([C@H]2CC[C@@H]3[C@@H](COc4ccc5c(c4)CCC5)[C@@H](O)C[C@@H]3O2)n1` [9(1), 2-{(2R,4aR,5S,6S,7aS)-5-[(2,3-dihydro-1H-inden-5-yloxy)methyl]-6-hydroxyoctahydrocyclopenta[b]pyran-2-yl}-1,3-thiazole-4-carboxylic acid]: the half-maximal effective concentration (EC50) under setting [1] was determined as 0.86 nM.

As to `O=C(O)c1csc([C@H]2CC[C@@H]3[C@@H](/C=C/[C@@H](O)COc4ccccc4)[C@H](O)C[C@@H]3OC2)n1` [reference compound], under setting [2], the EC50 is at least 10000 nM.

On to `CCCCC[C@H](O)/C=C/[C@@H]1[C@H]2CCC(c3ccccc3CC(=O)O)O[C@H]2C[C@H]1O` (some centres unmarked) [reference compound], for which the EC50 under setting [2] was at least 10000 nM.

As to `O=C(O)c1csc([C@H]2CC[C@@H]3[C@@H](COc4ccc5c(c4F)CCC5)[C@H](O)C[C@@H]3O2)n1` [1(19), 2-[(2R,4aR,5S,6R,7aS)-5-{[(4-fluoro-2,3-dihydro-1H-inden-5-yl)oxy]methyl}-6-hydroxyoctahydrocyclopenta[b]pyran-2-yl]-1,3-thiazole-4-carboxylic acid], the EC50 under setting [1] was found to be 2.4 nM.

With `O=C(O)c1csc([C@H]2CC[C@@H]3[C@@H](COc4ccc(C5CC5)c(C5CC5)c4)[C@@H](O)C[C@@H]3O2)n1` [Example 9, 2-{(2R,4aR,5S,6S,7aS)-5-[(3,4-dicyclopropylphenoxy)methyl]-6-hydroxyoctahydrocyclopenta[b]pyran-2-yl}-1,3-thiazole-4-carboxylic acid], the concentration giving a half-maximal response (EC50) under setting [1] turned out to be 2.8 nM.

With `O=C(O)c1csc([C@H]2CC[C@@H]3[C@@H](COc4ccc5c(c4)CCC5)[C@H](O)C[C@@H]3O2)n1` [1(6), 2-{(2R,4aR,5S,6R,7aS)-5-[(2,3-dihydro-1H-inden-5-yloxy)methyl]-6-hydroxyoctahydrocyclopenta[b]pyran-2-yl}-1,3-thiazole-4-carboxylic acid], under setting [1], the EC50 is 7.5 nM.

Consider `CCc1cc(OC[C@@H]2[C@H]3CC[C@H](c4nc(C(=O)O)cs4)O[C@H]3C[C@H]2O)ccc1C` [1(17), 2-{(2R,4aR,5S,6R,7aS)-5-[(3-ethyl-4-methylphenoxy)methyl]-6-hydroxyoctahydrocyclopenta[b]pyran-2-yl}-1,3-thiazole-4-carboxylic acid], for which, under setting [1], the 50% effective concentration (EC50) amounted to 0.82 nM.

In the case of `O=C(O)c1csc([C@H]2CC[C@@H]3[C@@H](COc4ccc(Cl)c(C5CC5)c4)[C@H](O)C[C@@H]3O2)n1` [1(22), 2-{(2R,4aR,5S,6R,7aS)-5-[(4-chloro-3-cyclopropylphenoxy)methyl]-6-hydroxyoctahydrocyclopenta[b]pyran-2-yl}-1,3-thiazole-4-carboxylic acid], the EC50 under setting [1] was found to be 2.3 nM.

In the case of `O=C(O)c1csc([C@H]2CC[C@@H]3[C@@H](COc4ccccc4)[C@H](O)C[C@@H]3O2)n1` [1(27), 2-[(2R,4aR,5S,6R,7aS)-6-hydroxy-5-(phenoxymethyl)octahydrocyclopenta[b]pyran-2-yl]-1,3-thiazole-4-carboxylic acid], under setting [1], the EC50 stood at 12 nM.

`Cc1cc(OC[C@@H]2[C@H]3CC[C@H](c4nc(C(=O)O)cs4)O[C@H]3C[C@H]2O)ccc1Cl` [1(5), 2-{(2R,4aR,5S,6R,7aS)-5-[(4-chloro-3-methylphenoxy)methyl]-6-hydroxyoctahydrocyclopenta[b]pyran-2-yl}-1,3-thiazole-4-carboxylic acid]: under setting [1], the EC50 was 0.9 nM.

For `O=C(O)c1csc([C@H]2CC[C@@H]3[C@@H](COc4ccc5c(c4)CCCC5)[C@@H](O)C[C@@H]3O2)n1` [9(12), 2-{(2R,4aR,5S,6S,7aS)-6-hydroxy-5-[(5,6,7,8-tetrahydro-2-naphthalenyloxy)methyl]octahydrocyclopenta[b]pyran-2-yl}-1,3-thiazole-4-carboxylic acid], under setting [1], the half-maximal effective concentration (EC50) was 6.4 nM.

With `CCc1ccc(OC[C@@H]2[C@H]3CC[C@H](c4nc(C(=O)O)cs4)O[C@H]3C[C@@H]2O)cc1C1CC1` [9(35), 2-{(2R,4aR,5S,6S,7aS)-5-[(3-cyclopropyl-4-ethylphenoxy)methyl]-6-hydroxyoctahydrocyclopenta[b]pyran-2-yl}-1,3-thiazole-4-carboxylic acid], the half-maximal effective concentration (EC50) under setting [1] was determined as 2.4 nM.

As for `Cc1ccc(OC[C@@H]2[C@H]3CC[C@H](c4nc(C(=O)O)cs4)O[C@H]3C[C@@H]2O)cc1Cl` [9(3), 2-{(2R,4aR,5S,6S,7aS)-5-[(3-chloro-4-methylphenoxy)methyl]-6-hydroxyoctahydrocyclopenta[b]pyran-2-yl}-1,3-thiazole-4-carboxylic acid], under setting [1], the EC50 is 0.16 nM.

With `O=C(O)c1ccc(C2=CC[C@@H]3[C@@H](/C=C/[C@@H](O)C4CCCC4)[C@H](O)C[C@@H]3O2)o1` [reference compound], under setting [2], the EC50 was at least 10000 nM.

On to `Cc1ccc(OC[C@@H]2[C@H]3CC[C@H](c4nc(C(=O)O)cs4)O[C@H]3C[C@H]2O)cc1C` [1(7), 2-{(2R,4aR,5S,6R,7aS)-5-[(3,4-dimethylphenoxy)methyl]-6-hydroxyoctahydrocyclopenta[b]pyran-2-yl}-1,3-thiazole-4-carboxylic acid], for which the EC50 under setting [1] came out at 3.3 nM.

In the case of `CCc1cc(OC[C@@H]2[C@H]3CC[C@H](c4nc(C(=O)O)cs4)O[C@H]3C[C@@H]2O)ccc1C` [9(4), 2-{(2R,4aR,5S,6S,7aS)-5-[(3-ethyl-4-methylphenoxy)methyl]-6-hydroxyoctahydrocyclopenta[b]pyran-2-yl}-1,3-thiazole-4-carboxylic acid], under setting [1], the EC50 stood at 0.33 nM.

`Cc1cc(OC[C@@H]2[C@H]3CC[C@H](c4nc(C(=O)O)cs4)O[C@H]3C[C@H]2O)ccc1[N+](=O)[O-]` [1(4), 2-{(2R,4aR,5S,6R,7aS)-6-hydroxy-5-[(3-methyl-4-nitrophenoxy)methyl]octahydrocyclopenta[b]pyran-2-yl}-1,3-thiazole-4-carboxylic acid]: the EC50 under setting [1] stood at 0.5 nM.

Take `O=C(O)c1csc([C@H]2CC[C@@H]3[C@@H](COc4ccc5ccoc5c4)[C@H](O)C[C@@H]3O2)n1` [1(16), 2-{(2R,4aR,5S,6R,7aS)-5-[(1-benzofuran-6-yloxy)methyl]-6-hydroxyoctahydrocyclopenta[b]pyran-2-yl}-1,3-thiazole-4-carboxylic acid]: the EC50 under setting [1] turned out to be 5.5 nM.

With `O=C(O)c1csc([C@H]2CC[C@@H]3[C@@H](COc4cccc5c4CCC5)[C@H](O)C[C@@H]3O2)n1` [1(13), 2-{(2R,4aR,5S,6R,7aS)-5-[(2,3-dihydro-1H-inden-4-yloxy)methyl]-6-hydroxyoctahydrocyclopenta[b]pyran-2-yl}-1,3-thiazole-4-carboxylic acid], the EC50 under setting [1] is 1.1 nM.

Regarding `O=C(O)c1csc([C@H]2CC[C@@H]3[C@@H](COc4ccc5c(c4)CCCCC5)[C@@H](O)C[C@@H]3O2)n1` [9(33)], the EC50 under setting [1] is 1.6 nM.

Consider `CSc1cc(OC[C@@H]2[C@H]3CC[C@H](c4nc(C(=O)O)cs4)O[C@H]3C[C@@H]2O)ccc1C` [9(25)], for which the concentration giving a half-maximal response (EC50) under setting [1] turned out to be 0.074 nM.

`O=C(O)c1csc([C@H]2CC[C@@H]3[C@@H](COc4ccc5[nH]ccc5c4)[C@H](O)C[C@@H]3O2)n1` [1(12), 2-{(2R,4aR,5S,6R,7aS)-6-hydroxy-5-[(1H-indol-5-yloxy)methyl]octahydrocyclopenta[b]pyran-2-yl}-1,3-thiazole-4-carboxylic acid]: the EC50 under setting [1] is 19 nM.

Source of the values: patent publication US9890146B2, “Compound having selective EP2 agonist activity” (ONO PHARMACEUTICAL CO., LTD., priority 2014, dated 2018).
